Measurements from patent publication US9669003B2, “Use of flavone and flavanone derivatives in preparation of sedative and hypnotic drugs” (priority 2012, dated 2017).
Marks after values point to notes of the source that are not given here.

Each compound was assayed on Kunming mice (assay: Influence on hypnosis effect with pentobarbital sodium doses below the threshold (25 mg/kg i.p.)). Conditions: test drug 25 mg/kg intragastric single dose, pentobarbital sodium 25 mg/kg i.p. 60 min later, sleep observed in 30 min, n = 10.
Assay type: in vivo
Outline: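 Percentage of mice sleeping within 30 min after subthreshold pentobarbital sodium (25 mg/kg i.p.), defined by loss of righting reflex over 1 min, analysed by χ2. Compound in 0.5% CMC-Na given intragastrically at 25/50/100 mg/kg 60 min before; groups of 10 Kunming mice, both sexes.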

| Compound | Number of sleeping animals | rate of sleeping (%) |
| --- | --- | --- |
| COc1ccc(C2CC(=O)c3c(O)c(OC)c(OC)c(OC)c3O2)cc1OC (stereo not drawn) [Example 43, 5-hydroxyl-6,7,8,3′,4′-penta methoxyl-flavanone] | 5 | 50** % |
| COc1ccc(-c2oc3c(OC)c(OC)c(OC)c(OC)c3c(=O)c2OC)cc1OC [Example 41, 3,5,6,7,8,3′,4′-heptamethoxyl-flavone] | 4 | 40* % |

Same assay, conditions: test drug 50 mg/kg intragastric single dose, pentobarbital sodium 25 mg/kg i.p. 60 min later, sleep observed in 30 min, n = 10

| Compound | Number of sleeping animals | rate of sleeping (%) |
| --- | --- | --- |
| COc1ccc(C2CC(=O)c3c(O)c(OC)c(OC)c(OC)c3O2)cc1OC (stereo not drawn) [Example 43, 5-hydroxyl-6,7,8,3′,4′-penta methoxyl-flavanone] | 7 | 70** % |
| COc1ccc(-c2oc3c(OC)c(OC)c(OC)c(OC)c3c(=O)c2OC)cc1OC [Example 41, 3,5,6,7,8,3′,4′-heptamethoxyl-flavone] | 6 | 60** % |

Same assay, conditions: test drug 100 mg/kg intragastric single dose, pentobarbital sodium 25 mg/kg i.p. 60 min later, sleep observed in 30 min, n = 10

| Compound | Number of sleeping animals | rate of sleeping (%) |
| --- | --- | --- |
| COc1ccc(C2CC(=O)c3c(O)c(OC)c(OC)c(OC)c3O2)cc1OC (stereo not drawn) [Example 43, 5-hydroxyl-6,7,8,3′,4′-penta methoxyl-flavanone] | 8 | 80*** % |
| COc1ccc(-c2oc3c(OC)c(OC)c(OC)c(OC)c3c(=O)c2OC)cc1OC [Example 41, 3,5,6,7,8,3′,4′-heptamethoxyl-flavone] | 8 | 80*** % |

The compounds below were run on Kunming mice (assay: Influence on autonomic activity of normal mice (ZIL-2 mice autonomic activity meter, counts within 10 min)). Conditions: intragastric, 25 mg/kg, 1 h after administration, x ± s, n = 10.
Assay type: in vivo
Outline: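 Activity counts during a 10-min window were taken at 1, 2 and 24 h after dosing in groups of 10 mixed-sex Kunming mice. Compounds were given in 0.5% CMC-Na at 25, 50 or 100 mg/kg. Statistics used Levene's homogeneity test, ANOVA and Dunnett's multiple comparisons.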

| Compound | Times of activities in 1 h after drug administration/10 min |
| --- | --- |
| COc1ccc(-c2oc3c(OC)c(OC)c(OC)c(OC)c3c(=O)c2OC)cc1OC [Example 41, 3,5,6,7,8,3′,4′-heptamethoxyl-flavone] | 285.2 ± 44.1 /10 min |

Same assay, conditions: intragastric, 25 mg/kg, 1 h after administration, x ± s, n = 10, 25 mg/kg

| Compound | Times of activities in 1 h after drug administration/10 min |
| --- | --- |
| COc1ccc(C2CC(=O)c3c(O)c(OC)c(OC)c(OC)c3O2)cc1OC (stereo not drawn) [Example 43, 5-hydroxyl-6,7,8,3′,4′-penta methoxyl-flavanone] | 293.7 ± 41.4 /10 min |

Same assay, conditions: intragastric, 25 mg/kg, 2 h after administration, x ± s, n = 10

| Compound | Times of activities in 2 h after drug administration/10 min |
| --- | --- |
| COc1ccc(-c2oc3c(OC)c(OC)c(OC)c(OC)c3c(=O)c2OC)cc1OC [Example 41, 3,5,6,7,8,3′,4′-heptamethoxyl-flavone] | 266.0 ± 40.6 /10 min |

Same assay, conditions: intragastric, 25 mg/kg, 2 h after administration, x ± s, n = 10, 25 mg/kg

| Compound | Times of activities in 2 h after drug administration/10 min |
| --- | --- |
| COc1ccc(C2CC(=O)c3c(O)c(OC)c(OC)c(OC)c3O2)cc1OC (stereo not drawn) [Example 43, 5-hydroxyl-6,7,8,3′,4′-penta methoxyl-flavanone] | 306.3 ± 51.6 /10 min |

Same assay, conditions: intragastric, 25 mg/kg, 24 h after administration, x ± s, n = 10

| Compound | Times of activities in 24 h after drug administration/10 min |
| --- | --- |
| COc1ccc(-c2oc3c(OC)c(OC)c(OC)c(OC)c3c(=O)c2OC)cc1OC [Example 41, 3,5,6,7,8,3′,4′-heptamethoxyl-flavone] | 307.2 ± 69.7 /10 min |

Same assay, conditions: intragastric, 25 mg/kg, 24 h after administration, x ± s, n = 10, 25 mg/kg

| Compound | Times of activities in 24 h after drug administration/10 min |
| --- | --- |
| COc1ccc(C2CC(=O)c3c(O)c(OC)c(OC)c(OC)c3O2)cc1OC (stereo not drawn) [Example 43, 5-hydroxyl-6,7,8,3′,4′-penta methoxyl-flavanone] | 324.7 ± 71.3 /10 min |

Same assay, conditions: intragastric, 50 mg/kg, 1 h after administration, x ± s, n = 10

| Compound | Times of activities in 1 h after drug administration/10 min |
| --- | --- |
| COc1ccc(-c2oc3c(OC)c(OC)c(OC)c(OC)c3c(=O)c2OC)cc1OC [Example 41, 3,5,6,7,8,3′,4′-heptamethoxyl-flavone] | 260.4 ± 37.9 /10 min |

Same assay, conditions: intragastric, 50 mg/kg, 1 h after administration, x ± s, n = 10, 50 mg/kg

| Compound | Times of activities in 1 h after drug administration/10 min |
| --- | --- |
| COc1ccc(C2CC(=O)c3c(O)c(OC)c(OC)c(OC)c3O2)cc1OC (stereo not drawn) [Example 43, 5-hydroxyl-6,7,8,3′,4′-penta methoxyl-flavanone] | 254.1 ± 42.7 /10 min |

Same assay, conditions: intragastric, 50 mg/kg, 2 h after administration, x ± s, n = 10

| Compound | Times of activities in 2 h after drug administration/10 min |
| --- | --- |
| COc1ccc(-c2oc3c(OC)c(OC)c(OC)c(OC)c3c(=O)c2OC)cc1OC [Example 41, 3,5,6,7,8,3′,4′-heptamethoxyl-flavone] | 245.5 ± 28.1 /10 min |

Same assay, conditions: intragastric, 50 mg/kg, 2 h after administration, x ± s, n = 10, 50 mg/kg

| Compound | Times of activities in 2 h after drug administration/10 min |
| --- | --- |
| COc1ccc(C2CC(=O)c3c(O)c(OC)c(OC)c(OC)c3O2)cc1OC (stereo not drawn) [Example 43, 5-hydroxyl-6,7,8,3′,4′-penta methoxyl-flavanone] | 252.6 ± 41.6 /10 min |

Same assay, conditions: intragastric, 50 mg/kg, 24 h after administration, x ± s, n = 10

| Compound | Times of activities in 24 h after drug administration/10 min |
| --- | --- |
| COc1ccc(-c2oc3c(OC)c(OC)c(OC)c(OC)c3c(=O)c2OC)cc1OC [Example 41, 3,5,6,7,8,3′,4′-heptamethoxyl-flavone] | 306.2 ± 81.3 /10 min |

Same assay, conditions: intragastric, 50 mg/kg, 24 h after administration, x ± s, n = 10, 50 mg/kg

| Compound | Times of activities in 24 h after drug administration/10 min |
| --- | --- |
| COc1ccc(C2CC(=O)c3c(O)c(OC)c(OC)c(OC)c3O2)cc1OC (stereo not drawn) [Example 43, 5-hydroxyl-6,7,8,3′,4′-penta methoxyl-flavanone] | 313.7 ± 68.5 /10 min |

Same assay, conditions: intragastric, 100 mg/kg, 1 h after administration, x ± s, n = 10

| Compound | Times of activities in 1 h after drug administration/10 min |
| --- | --- |
| COc1ccc(-c2oc3c(OC)c(OC)c(OC)c(OC)c3c(=O)c2OC)cc1OC [Example 41, 3,5,6,7,8,3′,4′-heptamethoxyl-flavone] | 198.6 ± 58.8 /10 min |

Same assay, conditions: intragastric, 100 mg/kg, 1 h after administration, x ± s, n = 10, 100 mg/kg

| Compound | Times of activities in 1 h after drug administration/10 min |
| --- | --- |
| COc1ccc(C2CC(=O)c3c(O)c(OC)c(OC)c(OC)c3O2)cc1OC (stereo not drawn) [Example 43, 5-hydroxyl-6,7,8,3′,4′-penta methoxyl-flavanone] | 265.4 ± 49.2 /10 min |

Same assay, conditions: intragastric, 100 mg/kg, 2 h after administration, x ± s, n = 10

| Compound | Times of activities in 2 h after drug administration/10 min |
| --- | --- |
| COc1ccc(-c2oc3c(OC)c(OC)c(OC)c(OC)c3c(=O)c2OC)cc1OC [Example 41, 3,5,6,7,8,3′,4′-heptamethoxyl-flavone] | 171.5 ± 56.7 /10 min |

Same assay, conditions: intragastric, 100 mg/kg, 2 h after administration, x ± s, n = 10, 100 mg/kg

| Compound | Times of activities in 2 h after drug administration/10 min |
| --- | --- |
| COc1ccc(C2CC(=O)c3c(O)c(OC)c(OC)c(OC)c3O2)cc1OC (stereo not drawn) [Example 43, 5-hydroxyl-6,7,8,3′,4′-penta methoxyl-flavanone] | 258.1 ± 32.7 /10 min |

Same assay, conditions: intragastric, 100 mg/kg, 24 h after administration, x ± s, n = 10

| Compound | Times of activities in 24 h after drug administration/10 min |
| --- | --- |
| COc1ccc(-c2oc3c(OC)c(OC)c(OC)c(OC)c3c(=O)c2OC)cc1OC [Example 41, 3,5,6,7,8,3′,4′-heptamethoxyl-flavone] | 291.5 ± 70.0 /10 min |

Same assay, conditions: intragastric, 100 mg/kg, 24 h after administration, x ± s, n = 10, 100 mg/kg

| Compound | Times of activities in 24 h after drug administration/10 min |
| --- | --- |
| COc1ccc(C2CC(=O)c3c(O)c(OC)c(OC)c(OC)c3O2)cc1OC (stereo not drawn) [Example 43, 5-hydroxyl-6,7,8,3′,4′-penta methoxyl-flavanone] | 294.1 ± 72.3 /10 min |

Each compound was assayed on Kunming mice (assay: Influence on hypnosis effect with pentobarbital sodium doses at the threshold (50 mg/kg i.p.)). Conditions: 25 mg/kg intragastric single dose, pentobarbital sodium 50 mg/kg i.p. 60 min later, x ± s, n = 10.
Assay type: in vivo
Outline: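 Pentobarbital sodium (0.3%, 50 mg/kg i.p.) injected 60 min after a single intragastric dose (25, 50, 100 mg/kg, 0.5% CMC-Na vehicle) in Kunming mice, 10 per group, sexes balanced. Onset and length of sleep (righting reflex lost over 1 min) analysed by ANOVA; sleeping incidence by χ2 test.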

| Compound | duration of sleep | time to sleep |
| --- | --- | --- |
| COc1ccc(C2CC(=O)c3c(O)c(OC)c(OC)c(OC)c3O2)cc1OC (stereo not drawn) [Example 43, 5-hydroxyl-6,7,8,3′,4′-penta methoxyl-flavanone] | 32.33 ± 23.16 min | 4.88 ± 1.91 min |
| COc1ccc(-c2oc3c(OC)c(OC)c(OC)c(OC)c3c(=O)c2OC)cc1OC [Example 41, 3,5,6,7,8,3′,4′-heptamethoxyl-flavone] | 22.16 ± 16.23 min | 5.33 ± 2.25 min |

Same assay, conditions: 50 mg/kg intragastric single dose, pentobarbital sodium 50 mg/kg i.p. 60 min later, x ± s, n = 10

| Compound | duration of sleep | time to sleep |
| --- | --- | --- |
| COc1ccc(C2CC(=O)c3c(O)c(OC)c(OC)c(OC)c3O2)cc1OC (stereo not drawn) [Example 43, 5-hydroxyl-6,7,8,3′,4′-penta methoxyl-flavanone] | 59.98 ± 18.43 min | 4.19 ± 1.74 min |
| COc1ccc(-c2oc3c(OC)c(OC)c(OC)c(OC)c3c(=O)c2OC)cc1OC [Example 41, 3,5,6,7,8,3′,4′-heptamethoxyl-flavone] | 28.34 ± 17.13 min | 5.12 ± 2.09 min |

Same assay, conditions: 100 mg/kg intragastric single dose, pentobarbital sodium 50 mg/kg i.p. 60 min later, x ± s, n = 10

| Compound | duration of sleep | time to sleep |
| --- | --- | --- |
| COc1ccc(C2CC(=O)c3c(O)c(OC)c(OC)c(OC)c3O2)cc1OC (stereo not drawn) [Example 43, 5-hydroxyl-6,7,8,3′,4′-penta methoxyl-flavanone] | 63.07 ± 33.12 min | 3.85 ± 1.76 min |
| COc1ccc(-c2oc3c(OC)c(OC)c(OC)c(OC)c3c(=O)c2OC)cc1OC [Example 41, 3,5,6,7,8,3′,4′-heptamethoxyl-flavone] | 65.44 ± 37.54 min | 3.16 ± 1.23 min |
